{"source": "paper PMC2898662", "about": "“Midkine inhibitors: application of a simple assay procedure to screening of inhibitory compounds” (International Archives of Medicine, 2010)", "key": {"UMR106 cells": {"tested_on": "UMR106 cells", "test": "Toxicity to UMR106 target cells in culture", "text": "These 10 compounds were surveyed for the activity to inhibit midkine activity."}, "midkine [1]": {"target": "T1, midkine (Homo sapiens, UniProt P21741)", "T1 construct": "made in house; host or cells: yeast", "T1 sequence (P21741 23-143 limits assumed)": "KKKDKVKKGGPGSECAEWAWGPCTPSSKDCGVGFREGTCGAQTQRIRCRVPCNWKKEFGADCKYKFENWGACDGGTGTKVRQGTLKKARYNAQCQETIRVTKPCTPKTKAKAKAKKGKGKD", "test": "Midkine activity: midkine-dependent migration of UMR106 cells (Chemotaxicell)", "assay_type": "cell-based", "conditions": "filter coated with 20 μg/ml midkine, 4 h, OD 590 nm", "description": "Midkine activity was determined by promotion of migration of UMR106 (ATTC No. 1661) cells. Chemotaxicell (pore size 8 micron, Kurabo Industries Ltd., Japan) was coated with 20 μg/ml of midkine at the lower surface of the filter for 1 h, and washed with Dulbecco's phosphate-buffered saline (PBS) twice. UMR106 cells (2 × 10^5 cells in 0.2 ml of Dulbecco's modified Eagle's medium with 0.3% bovine serum albumin) were added to the upper chamber. The lower chamber contained 0.5 ml of the same medium. Cells were cultured for 4 h. The inner Chemotaxicell was cleaned with PBS, and cells were fixed with 100% methanol at room temperature for 20 min. The inner cell was cleaned with cotton bar, and the migrated cells were stained with 1% crystal violet at room temperature for 30 min., and were washed with H2O. The cells were extracted with 0.2 ml of 1% SDS with 1% Triton X-100 for 1 h upon agitation. Then extract of 0.15 ml was transferred to a 96 well plate and OD 590 nm was determined. Upon inhibition assay using low molecular weight compounds, they were dissolved in ethanol and were added to the lower chamber so that the final ethanol concentration was 2%. The control contained also 2% ethanol in this occasion. Inhibition assay using peptides was performed by adding them dissolved in H2O. Assay was done in duplicate."}, "midkine [2]": {"target": "T1, midkine", "test": "Binding activity to midkine by surface plasmon assay (BIACORE 3000)", "conditions": "BIACORE 3000, midkine immobilised on CM5 chip; peptides 5 μg/ml in 10 mM HEPES-NaOH pH 7.4, 0.15 M NaCl, 0.0005% Tween 20; 25°C; read-out: Binding constant to midkine", "description": "Binding activity to midkine was evaluated in the BIACORE 3000 System (GE Healthcare, UK Ltd). A CM5 sensor chip coated with carboxymethyldextran was activated by injecting a solution (1:1) of 200 mM N-ethyl-N'-(3-dimethylaminopropyl) carbodiimide hydrochloride and 100 mM N-hydroxysuccinimide at a flow rate of 10 μl/min. A 70 μl aliquot of midkine solution (50 μg/ml in 10 mM acetate buffer, pH 5.0) was injected for immobilization. The remaining activated N-hydroxysuccinimide ester groups were blocked by injecting 1 M ethanolamine hydrochloride/NaOH, pH 8.5, and washed with 10 μl of 1 M NaCl. Peptides (5 μg/ml) in the running buffer (10 mM HEPES-NaOH, pH 7.4, containing 0.15 M NaCl and 0.0005% Tween 20) were injected into the flow cell, and the change in resonance units was recorded. Binding assays were performed at 25°C with a constant flow rate of […] in both association and dissociation phases."}, "[3]": {"conditions": "peptide added to culture of UMR106 cells at 1 mg/ml"}, "[4]": {"conditions": "peptide 1 mg/ml in lower chamber, dissolved in H2O, control without material = 100, duplicate"}}, "note": "pKd: −log10 of the molar value. Ends that are not written are not given here. Peptide text beside a SMILES is read from it.", "data": [{"molecule": "CC1CCCC(C)N1c1nc(-c2cccs2)cc(C(F)(F)F)n1", "note": "(stereo not shown) [Compound I, 2-(2,6-dimethylpiperidin-1-yl)-4-thiophen-2-yl-6-(trifluoromethy)pyrimidine]", "values": [{"measurement": "Toxicity to the target cells", "setting": "UMR106 cells; at the concentration used for the migration assay (Compound I 0.146 mg/ml, Compound II 0.10 mg/ml)", "value": "no toxicity"}, {"measurement": "Migration activity (%)", "setting": "midkine [1]; compound 0.146 mg/ml in lower chamber, 2% ethanol, control = 100, duplicate", "value": "43.8 ± 10.2", "unit": "%"}]}, {"molecule": "CC[C@H](C)[C@H](NC(=O)[C@H](CS)NC(=O)[C@H](CCC(=O)O)NC(=O)CNC(=O)[C@H](CS)NC(=O)[C@H](CO)NC(=O)[C@H](CCCCN)NC(=O)[C@H](C)NC(=O)[C@H](CC(N)=O)NC(=O)[C@H](C)NC(=O)[C@@H](N)CCCCN)C(=O)O", "note": "[KA11] (H-KANAKSCGECI-OH)", "values": [{"measurement": "Toxicity to UMR106 cells", "setting": "UMR106 cells; [3]", "value": "no toxicity was observed"}, {"measurement": "pKd", "setting": "midkine [2]", "value": 6.57}, {"measurement": "Migration activity (%)", "setting": "midkine [1]; [4]", "value": "43.7 ± 12.8", "unit": "%"}]}, {"molecule": "AMETNLV [AM7]", "values": [{"measurement": "pKd", "setting": "midkine [2]", "value": 6.02}, {"measurement": "Migration activity (%)", "setting": "midkine [1]; [4]", "value": "99.5 ± 6.9", "unit": "%"}]}, {"molecule": "GTGTKVRQGTL [GT11, midkine-derived peptide … from β-sheet of C-terminal half]", "values": [{"measurement": "Migration activity (%)", "setting": "midkine [1]; [4]", "value": "156 ± 6", "unit": "%"}]}, {"molecule": "IENPRGSKDIKKNKN [IE15]", "values": [{"measurement": "pKd", "setting": "midkine [2]", "value": 6.52}, {"measurement": "Migration activity (%)", "setting": "midkine [1]; [4]", "value": "113 ± 10.1", "unit": "%"}]}, {"molecule": "KQNQVKFGS [KQ9]", "values": [{"measurement": "pKd", "setting": "midkine [2]", "value": 6.70}, {"measurement": "Migration activity (%)", "setting": "midkine [1]; [4]", "value": "107 ± 15", "unit": "%"}]}, {"molecule": "MQSTIRE [MQ7]", "values": [{"measurement": "pKd", "setting": "midkine [2]", "value": 6.64}, {"measurement": "Migration activity (%)", "setting": "midkine [1]; [4]", "value": "107 ± 2", "unit": "%"}]}, {"molecule": "PAKLRNPCT [PA9]", "values": [{"measurement": "pKd", "setting": "midkine [2]", "value": 6.35}, {"measurement": "Migration activity (%)", "setting": "midkine [1]; [4]", "value": "69.4 ± 46.1", "unit": "%"}]}, {"molecule": "QETIRVTKPC [QE10, midkine-derived peptide … from β-sheet of C-terminal half]", "values": [{"measurement": "Migration activity (%)", "setting": "midkine [1]; [4]", "value": "99.5 ± 10.6", "unit": "%"}]}, {"molecule": "TFSQRIEG [TF8]", "values": [{"measurement": "pKd", "setting": "midkine [2]", "value": 6.85}, {"measurement": "Migration activity (%)", "setting": "midkine [1]; [4]", "value": "105 ± 24", "unit": "%"}]}, {"molecule": "YKFENWGACDGG [YK12, midkine-derived peptide … from β-sheet of C-terminal half]", "values": [{"measurement": "Inhibition of cell-substratum adhesion of UMR106 cells", "setting": "UMR106 cells; [3]", "value": "inhibition of cell-substratum adhesion was observed in a certain occasion"}, {"measurement": "Toxicity to UMR106 cells", "setting": "UMR106 cells; [3]", "value": "no toxicity was observed"}, {"measurement": "Migration activity (%)", "setting": "midkine [1]; [4]", "value": "44.0 ± 10.5", "unit": "%"}]}]}
